Experiments:
Type in all cases: biochemical
[1] = target: phosphor-Axl (Homo sapiens (Human), UniProt P30530); assay: TAM Enzymatic Assay (HTRF), Axl; details: recombinant autophosphorylated Axl, 60 min, room temperature
[2] = target: Tyro3 (Homo sapiens (Human), UniProt Q06418); assay: TAM Enzymatic Assay (HTRF), Tyro3; details: Tyro3, 60 min, room temperature
Method in brief: (§1)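 Reactions ran 60 min at room temperature, protected from light, started by substrate addition to enzyme plus DMSO compound, in pH 7.5 HEPES buffer with 10 mM MgCl2, 1 mM EGTA, 0.01% NP-40, 2 mM DTT.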

[3] = target: c-Mer (Homo sapiens (Human), UniProt Q12866); assay: TAM Enzymatic Assay (HTRF), Mer; details: 60 min, room temperature
Chain of c-Mer (Q12866 21-999): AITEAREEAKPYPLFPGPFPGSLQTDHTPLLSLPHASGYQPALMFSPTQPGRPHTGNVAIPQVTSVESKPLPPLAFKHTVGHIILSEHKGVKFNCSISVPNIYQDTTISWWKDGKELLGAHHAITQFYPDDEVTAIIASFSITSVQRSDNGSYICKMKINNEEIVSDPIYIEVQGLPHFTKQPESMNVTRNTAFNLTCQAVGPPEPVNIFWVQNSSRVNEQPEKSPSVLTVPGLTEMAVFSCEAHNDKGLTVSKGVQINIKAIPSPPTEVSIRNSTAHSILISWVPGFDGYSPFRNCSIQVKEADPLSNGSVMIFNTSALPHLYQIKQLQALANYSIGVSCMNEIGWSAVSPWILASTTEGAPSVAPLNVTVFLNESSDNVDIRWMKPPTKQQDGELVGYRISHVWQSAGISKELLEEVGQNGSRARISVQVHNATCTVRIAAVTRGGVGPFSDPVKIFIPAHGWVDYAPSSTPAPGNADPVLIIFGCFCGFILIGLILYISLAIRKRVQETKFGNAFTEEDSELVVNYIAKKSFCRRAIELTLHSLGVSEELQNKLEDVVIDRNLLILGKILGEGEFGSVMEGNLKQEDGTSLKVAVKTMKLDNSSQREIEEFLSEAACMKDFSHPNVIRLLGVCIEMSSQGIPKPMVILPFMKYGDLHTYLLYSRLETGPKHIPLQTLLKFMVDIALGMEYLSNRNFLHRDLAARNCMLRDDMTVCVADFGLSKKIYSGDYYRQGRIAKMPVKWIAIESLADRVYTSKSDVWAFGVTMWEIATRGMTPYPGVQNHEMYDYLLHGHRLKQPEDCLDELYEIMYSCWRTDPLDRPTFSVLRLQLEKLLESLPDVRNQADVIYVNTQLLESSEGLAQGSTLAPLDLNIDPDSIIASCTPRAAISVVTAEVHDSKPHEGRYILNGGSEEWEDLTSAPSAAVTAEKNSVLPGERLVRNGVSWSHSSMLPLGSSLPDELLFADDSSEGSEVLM
Method in brief: as §1

Chain of phosphor-Axl (P30530 26-894): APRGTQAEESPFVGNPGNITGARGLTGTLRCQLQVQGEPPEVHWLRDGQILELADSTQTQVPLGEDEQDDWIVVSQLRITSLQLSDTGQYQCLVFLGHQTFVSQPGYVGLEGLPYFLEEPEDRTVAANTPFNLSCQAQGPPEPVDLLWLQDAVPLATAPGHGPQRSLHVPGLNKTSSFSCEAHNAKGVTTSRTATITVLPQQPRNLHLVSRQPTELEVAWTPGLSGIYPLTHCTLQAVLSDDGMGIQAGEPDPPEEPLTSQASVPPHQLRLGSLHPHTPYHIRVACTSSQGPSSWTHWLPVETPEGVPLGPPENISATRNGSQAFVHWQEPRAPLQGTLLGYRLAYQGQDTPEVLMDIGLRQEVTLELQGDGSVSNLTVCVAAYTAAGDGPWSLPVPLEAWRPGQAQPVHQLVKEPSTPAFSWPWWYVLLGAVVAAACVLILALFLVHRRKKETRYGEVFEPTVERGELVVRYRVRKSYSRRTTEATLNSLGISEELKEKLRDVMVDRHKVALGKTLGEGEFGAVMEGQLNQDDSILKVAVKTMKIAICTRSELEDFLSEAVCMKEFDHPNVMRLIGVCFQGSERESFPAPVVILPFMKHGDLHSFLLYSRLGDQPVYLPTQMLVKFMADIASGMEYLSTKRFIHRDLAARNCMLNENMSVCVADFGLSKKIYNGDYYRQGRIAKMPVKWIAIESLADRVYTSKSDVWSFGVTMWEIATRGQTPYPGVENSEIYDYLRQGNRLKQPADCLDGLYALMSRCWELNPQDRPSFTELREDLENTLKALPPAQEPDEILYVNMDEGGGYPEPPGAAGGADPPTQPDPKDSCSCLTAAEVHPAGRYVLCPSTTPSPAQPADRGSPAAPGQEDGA
Chain of Tyro3 (Q06418 41-890): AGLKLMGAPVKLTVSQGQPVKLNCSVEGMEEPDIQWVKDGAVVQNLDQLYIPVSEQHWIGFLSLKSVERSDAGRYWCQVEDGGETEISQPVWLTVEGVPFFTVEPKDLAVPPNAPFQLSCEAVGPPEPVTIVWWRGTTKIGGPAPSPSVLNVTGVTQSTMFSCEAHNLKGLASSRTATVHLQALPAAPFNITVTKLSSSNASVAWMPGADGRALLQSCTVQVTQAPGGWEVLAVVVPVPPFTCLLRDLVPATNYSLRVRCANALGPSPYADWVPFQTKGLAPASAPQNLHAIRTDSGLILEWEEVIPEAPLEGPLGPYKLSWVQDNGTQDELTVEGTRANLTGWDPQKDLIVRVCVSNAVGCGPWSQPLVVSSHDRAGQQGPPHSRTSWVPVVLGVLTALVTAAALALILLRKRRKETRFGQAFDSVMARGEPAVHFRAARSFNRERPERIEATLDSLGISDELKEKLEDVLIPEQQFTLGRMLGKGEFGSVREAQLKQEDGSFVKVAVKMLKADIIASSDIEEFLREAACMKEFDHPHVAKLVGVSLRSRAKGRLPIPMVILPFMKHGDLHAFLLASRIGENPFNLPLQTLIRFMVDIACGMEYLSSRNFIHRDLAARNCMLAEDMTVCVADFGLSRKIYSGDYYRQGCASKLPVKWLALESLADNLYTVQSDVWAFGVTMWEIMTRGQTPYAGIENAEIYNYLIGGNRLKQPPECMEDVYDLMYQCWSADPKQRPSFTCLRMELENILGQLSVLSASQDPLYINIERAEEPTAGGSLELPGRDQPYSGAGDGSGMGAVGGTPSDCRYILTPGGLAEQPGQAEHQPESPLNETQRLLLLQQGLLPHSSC

Structure (SMILES)	IC50 [1] [nM]	IC50 [2] [nM]	IC50 [3] [nM]
N#C[C@H]1CC[C@@H](c2cc(-c3ccc(NC(=O)c4cccn(-c5ccc(F)cc5)c4=O)cc3)c3c(N)ncnn32)CC1 [Example 29, N-{4-[4-Amino-7-(cis-4-cyanocyclohexyl)pyrrolo[2,1-f][1,2,4]triazin-5-yl]phenyl}-1-(4-fluorophenyl)-2-oxo-1,2-dihydropyridine-3-carboxamide]	≤ 5	10 to 100	≤ 5
CCc1cc(-c2ccc(NC(=O)c3cccn([C@H](C)CO)c3=O)cc2)c2c(N)ncnn12 [Example 3, N-[4-(4-Amino-7-ethylpyrrolo[2,1-f][1,2,4]triazin-5-yl)phenyl]-1-[(1R)-2-hydroxy-1-methylethyl]-2-oxo-1,2-dihydropyridine-3-carboxamide]	> 100	> 100	> 100
COCCN1CCC(c2cc(-c3ccc(NC(=O)c4cccn(-c5ccc(F)cc5)c4=O)cc3F)c3c(N)ncnn23)CC1 [Example 51, N-(4-{4-Amino-7-[1-(2-methoxyethyl)piperidin-4-yl]pyrrolo[2,1-f][1,2,4]triazin-5-yl}-3-fluorophenyl)-1-(4-fluorophenyl)-2-oxo-1,2-dihydropyridine-3-carboxamide]	≤ 5	5 to 10	≤ 5
CC(C)C(=O)N1CCC(c2cc(-c3ccc(NC(=O)c4cc5c(n(-c6ccccc6)c4=O)CCCC5=O)cc3)c3c(N)ncnn23)CC1 [Example 74, N-(4-(4-Amino-7-(1-isobutyrylpiperidin-4-yl)pyrrolo[1,2-f][1,2,4]triazin-5-yl)phenyl)-2,5-dioxo-1-phenyl-1,2,5,6,7,8-hexahydroquinoline-3-carboxamide]	≤ 5	10 to 100	≤ 5
Cc1c(-c2ncccn2)cc(C(=O)Nc2ccc(-c3cc(C4CCN(C(=O)C(C)C)CC4)n4ncnc(N)c34)cc2)c(=O)n1-c1ccccc1 [Example 108, N-{4-[4-Amino-7-(1-isobutyrylpiperidin-4-yl)pyrrolo[2,1-f][1,2,4]triazin-5-yl]phenyl}-6-methyl-2-oxo-1-phenyl-5-pyrimidin-2-yl-1,2-dihydropyridine-3-carboxamide]	≤ 5	10 to 100	≤ 5
CN1CCC(c2cc(-c3ccc(NC(=O)c4cccn(-c5ccccc5)c4=O)cc3F)c3c(N)ncnn23)CC1 [Example 22, N-{4-[4-Amino-7-(1-methylpiperidin-4-yl)pyrrolo[2,1-f][1,2,4]triazin-5-yl]-3-fluorophenyl}-2-oxo-1-phenyl-1,2-dihydropyridine-3-carboxamide]	≤ 5	10 to 100	≤ 5
CN(C)C(=O)N1CCC(c2cc(-c3ccc(NC(=O)c4cccn(-c5ccc(F)cc5)c4=O)cc3F)c3c(N)ncnn23)CC1 [Example 47, N-[4-(4-Amino-7-{1-[(dimethylamino)carbonyl]piperidin-4-yl}pyrrolo[2,1-f][1,2,4]triazin-5-yl)-3-fluorophenyl]-1-(4-fluorophenyl)-2-oxo-1,2-dihydropyridine-3-carboxamide]	≤ 5	10 to 100	≤ 5
CC(C)n1cc(C(=O)Nc2ccc(-c3cc(C4CCN(C)CC4)n4ncnc(N)c34)cc2)c(=O)n(-c2ccccc2)c1=O [Example 64, N-(4-(4-Amino-7-(1-methylpiperidin-4-yl)pyrrolo[1,2-f][1,2,4]triazin-5-yl)phenyl)-1-isopropyl-2,4-dioxo-3-phenyl-1,2,3,4-tetrahydropyrimidine-5-carboxamide]	≤ 5	10 to 100	≤ 5
CS(=O)(=O)N1CCC(c2cc(-c3ccc(NC(=O)c4cccn(-c5ccc(F)cc5)c4=O)cc3)c3c(N)ncnn23)CC1 [Example 41, N-(4-{4-Amino-7-[1-(methylsulfonyl)piperidin-4-yl]pyrrolo[2,1-f][1,2,4]triazin-5-yl}phenyl)-1-(4-fluorophenyl)-2-oxo-1,2-dihydropyridine-3-carboxamide]	≤ 5	10 to 100	≤ 5
COCc1c(Br)cc(C(=O)Nc2ccc(-c3cc(C4CCN(C(=O)C(C)C)CC4)n4ncnc(N)c34)cc2)c(=O)n1-c1ccccc1 [Example 136, N-(4-(4-Amino-7-(1-isobutyrylpiperidin-4-yl)pyrrolo[2,1-f][1,2,4]triazin-5-yl)phenyl)-5-bromo-6-(methoxymethyl)-2-oxo-1-phenyl-1,2-dihydropyridine-3-carboxamide]	≤ 5	> 100	≤ 5
CC(C)n1cc(C(=O)Nc2ccc(-c3cc(C4CCN(CC(=O)N(C)C)CC4)n4ncnc(N)c34)cc2)c(=O)n(-c2ccccc2)c1=O [Example 81, N-(4-(4-Amino-7-(1-(2-(dimethylamino)-2-oxoethyl)piperidin-4-yl)pyrrolo[1,2-f][1,2,4]triazin-5-yl)phenyl)-1-isopropyl-2,4-dioxo-3-phenyl-1,2,3,4-tetrahydropyrimidine-5-carboxamide]	≤ 5	10 to 100	≤ 5
Cc1c(CC#N)cc(C(=O)Nc2ccc(-c3cc(C4CCN(C(=O)C(C)C)CC4)n4ncnc(N)c34)cc2)c(=O)n1-c1ccccn1 [Example 122, N-(4-(4-Amino-7-(1-isobutyrylpiperidin-4-yl)pyrrolo[1,2-f][1,2,4]triazin-5-yl)phenyl)-5-(cyanomethyl)-6-methyl-2-oxo-1-(pyridin-2-yl)-1,2-dihydropyridine-3-carboxamide]	≤ 5	> 100	≤ 5

Now from value to compound:

IC50 [1] [nM]	IC50 [2] [nM]	IC50 [3] [nM]	Structure (SMILES)
≤ 5	> 100	≤ 5	Cc1c(C#N)cc(C(=O)Nc2ccc(-c3cc(C4CCN(C(=O)C(C)C)CC4)n4ncnc(N)c34)cc2)c(=O)n1-c1ccccc1 [Example 111, N-(4-(4-Amino-7-(1-isobutyrylpiperidin-4-yl)pyrrolo[2,1-f][1,2,4]triazin-5-yl)phenyl)-5-cyano-6-methyl-2-oxo-1-phenyl-1,2-dihydropyridine-3-carboxamide]
≤ 5	10 to 100	≤ 5	Nc1ncnn2c(C3CCNCC3)cc(-c3ccc(NC(=O)c4cccn(-c5ccc(F)cc5)c4=O)cc3)c12 [Example 33, N-[4-(4-Amino-7-piperidin-4-ylpyrrolo[2,1-f][1,2,4]triazin-5-yl)phenyl]-1-(4-fluorophenyl)-2-oxo-1,2-dihydropyridine-3-carboxamide]
≤ 5	≤ 5	≤ 5	CC(C)n1cc(C(=O)Nc2ccc(-c3cc(C4CCC(N(C)C)CC4)n4ncnc(N)c34)cc2)c(=O)n(-c2ccccc2)c1=O (stereo not drawn) [Example 93, N-(4-(4-Amino-7-(4-(dimethylamino)cyclohexyl)pyrrolo[2,1-f][1,2,4]triazin-5-yl)phenyl)-1-isopropyl-2,4-dioxo-3-phenyl-1,2,3,4-tetrahydropyrimidine-5-carboxamide]
≤ 5	> 100	≤ 5	Cc1c(Br)cc(C(=O)Nc2ccc(-c3cc(C4CCN(C(=O)C(C)C)CC4)n4ncnc(N)c34)cc2)c(=O)n1-c1cncc(F)c1 [Example 101, N-(4-(4-Amino-7-(1-isobutyrylpiperidin-4-yl)pyrrolo[1,2-f][1,2,4]triazin-5-yl)phenyl)-5-bromo-1-(5-fluoropyridin-3-yl)-6-methyl-2-oxo-1,2-dihydropyridine-3-carboxamide]
≤ 5	10 to 100	≤ 5	Nc1ncnn2c(C3CCOCC3)cc(-c3ccc(NC(=O)c4cccn(-c5ccc(F)cc5)c4=O)cc3)c12 [Example 14, N-{4-[4-Amino-7-(tetrahydro-2H-pyran-4-yl)pyrrolo[2,1-f][1,2,4]triazin-5-yl]phenyl}-1-(4-fluorophenyl)-2-oxo-1,2-dihydropyridine-3-carboxamide]
≤ 5	10 to 100	≤ 5	COC(=O)N1CCC(c2cc(-c3ccc(NC(=O)c4cccn(-c5ccc(F)cc5)c4=O)cc3)c3c(N)ncnn23)CC1 [Example 37, Methyl 4-{4-amino-5-[4-({[1-(4-fluorophenyl)-2-oxo-1,2-dihydropyridin-3-yl]carbonyl}amino)phenyl]pyrrolo[2,1-f][1,2,4]triazin-7-yl}piperidine-1-carboxylate]
≤ 5	10 to 100	≤ 5	CC(=O)N1CCC(c2cc(-c3ccc(NC(=O)c4cccn(-c5ccc(F)cc5)c4=O)cc3)c3c(N)ncnn23)CC1 [Example 25, N-{4-[7-(1-Acetylpiperidin-4-yl)-4-aminopyrrolo[2,1-f][1,2,4]triazin-5-yl]phenyl}-1-(4-fluorophenyl)-2-oxo-1,2-dihydropyridine-3-carboxamide]
≤ 5	10 to 100	≤ 5	CN1CCC(c2cc(-c3ccc(NC(=O)c4cccn(-c5ccc(F)cc5)c4=O)cc3F)c3c(N)ncnn23)CC1 [Example 23, N-{4-[4-Amino-7-(1-methylpiperidin-4-yl)pyrrolo[2,1-f][1,2,4]triazin-5-yl]-3-fluorophenyl}-1-(4-fluorophenyl)-2-oxo-1,2-dihydropyridine-3-carboxamide]
≤ 5	> 100	≤ 5	Cc1c(-c2ccn(C)n2)cc(C(=O)Nc2ccc(-c3cc(C4CCN(C(=O)C(C)C)CC4)n4ncnc(N)c34)cc2)c(=O)n1-c1ccccn1 [Example 125, N-(4-(4-Amino-7-(1-isobutyrylpiperidin-4-yl)pyrrolo[2,1-f][1,2,4]triazin-5-yl)phenyl)-6-methyl-5-(1-methyl-1H-pyrazol-3-yl)-2-oxo-2H-[1,2′-bipyridine]-3-carboxamide]
≤ 5	10 to 100	≤ 5	Nc1ncnn2c(C3CCN(CCO)CC3)cc(-c3ccc(NC(=O)c4cccn(-c5ccccc5)c4=O)cc3)c12 [Example 52, N-(4-{4-Amino-7-[1-(2-hydroxyethyl)piperidin-4-yl]pyrrolo[2,1-f][1,2,4]triazin-5-yl}phenyl)-2-oxo-1-phenyl-1,2-dihydropyridine-3-carboxamide]

Source: patent publication US9981975B2, “Pyrrolotriazine compounds as tam inhibitors” (Incyte Corporation, priority 2016, dated 2018)
